In the kinase profiling compilation of Christmann-Franck et al. (2016):

Tests used:
Experiment in all cases: KINOMEscan competition binding
Settings in all cases: compound 1.0 µM
CLK4 (human) = CLK4 (human) (UniProt Q9HAZ1)
INSR (human) = INSR (human) (UniProt P06213)
MELK (human) = MELK (human) (UniProt Q14680)
TNK1 (human) = TNK1 (human) (UniProt Q13470)
MAST1 (human) = MAST1 (human) (UniProt Q9Y2H9)
MAP4K5 (human) = MAP4K5 (human) (UniProt Q9Y4K4)
[1] = test system: KIT (human), P10721 [V559D]
MAPK11 (human) = MAPK11 (human) (UniProt Q15759)
AKT1 (human) = AKT1 (human) (UniProt P31749)
PRKAA1 (human) = PRKAA1 (human) (UniProt Q13131)
AKT3 (human) = AKT3 (human) (UniProt Q9Y243)
RPS6KA1 KD2 (human) = RPS6KA1 KD2 (human) (UniProt Q15418)
[2] = test system: FLT3 (human), P36888 [N841I]
RPS6KA2 KD2 (human) = RPS6KA2 KD2 (human) (UniProt Q15349)
PRKG1 (human) = PRKG1 (human) (UniProt Q13976)
[3] = molecular target: JAK1 JH2 pseudokinase (human) (UniProt P23458)
EIF2AK2 (human) = EIF2AK2 (human) (UniProt P19525)
HCK (human) = HCK (human) (UniProt P08631)
EPHB2 (human) = EPHB2 (human) (UniProt P29323)
STK32B (human) = STK32B (human) (UniProt Q9NY57)
NEK6 (human) = NEK6 (human) (UniProt Q9HC98)
CDK2 (human) = CDK2 (human) (UniProt P24941)
CDK18 (human) = CDK18 (human) (UniProt Q07002)
ERBB4 (human) = ERBB4 (human) (UniProt Q15303)
[4] = test system: EGFR (human), P00533 [L861Q]
TLK1 (human) = TLK1 (human) (UniProt Q9UKI8)
MAP3K5 (human) = MAP3K5 (human) (UniProt Q99683)
RAF1 (human) = RAF1 (human) (UniProt P04049)
MAP3K11 (human) = MAP3K11 (human) (UniProt Q16584)
RPS6KA2 KD1 (human) = RPS6KA2 KD1 (human) (UniProt Q15349)
DDR1 (human) = DDR1 (human) (UniProt Q08345)
HIPK3 (human) = HIPK3 (human) (UniProt Q9H422)
STK24 (human) = STK24 (human) (UniProt Q9Y6E0)
PIP5K1A (human) = PIP5K1A (human) (UniProt Q99755)
WEE1 (human) = WEE1 (human) (UniProt P30291)
BMPR1A (human) = BMPR1A (human) (UniProt P36894)
MAP3K4 (human) = MAP3K4 (human) (UniProt Q9Y6R4)
[5] = test system: KIT (human), P10721 [L576P]
STK16 (human) = STK16 (human) (UniProt O75716)
LTK (human) = LTK (human) (UniProt P29376)
Sequence of LTK (human) (P29376 whole entry, looked up): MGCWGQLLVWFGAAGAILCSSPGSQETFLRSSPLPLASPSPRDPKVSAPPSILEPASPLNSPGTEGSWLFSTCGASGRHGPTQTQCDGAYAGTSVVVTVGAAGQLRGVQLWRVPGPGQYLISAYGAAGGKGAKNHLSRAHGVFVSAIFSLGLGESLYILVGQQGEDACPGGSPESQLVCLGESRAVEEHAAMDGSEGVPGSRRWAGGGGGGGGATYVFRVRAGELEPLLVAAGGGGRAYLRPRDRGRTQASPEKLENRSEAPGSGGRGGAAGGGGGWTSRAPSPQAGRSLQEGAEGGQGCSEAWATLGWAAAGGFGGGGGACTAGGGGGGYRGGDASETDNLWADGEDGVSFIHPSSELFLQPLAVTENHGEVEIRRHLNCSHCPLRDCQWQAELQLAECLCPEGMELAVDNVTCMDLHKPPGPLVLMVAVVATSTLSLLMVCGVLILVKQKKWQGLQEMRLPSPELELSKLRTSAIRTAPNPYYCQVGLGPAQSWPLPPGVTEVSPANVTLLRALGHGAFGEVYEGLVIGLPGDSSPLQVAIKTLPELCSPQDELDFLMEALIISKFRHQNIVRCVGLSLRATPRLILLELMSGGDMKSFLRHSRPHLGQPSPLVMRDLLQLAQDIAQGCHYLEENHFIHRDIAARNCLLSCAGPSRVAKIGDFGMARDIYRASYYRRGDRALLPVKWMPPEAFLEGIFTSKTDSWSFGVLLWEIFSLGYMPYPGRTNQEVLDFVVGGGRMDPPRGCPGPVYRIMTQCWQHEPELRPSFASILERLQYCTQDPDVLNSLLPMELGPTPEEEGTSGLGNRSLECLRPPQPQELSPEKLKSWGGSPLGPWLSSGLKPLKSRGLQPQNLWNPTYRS

Sequence of CDK18 (human) (Q07002 whole entry, looked up): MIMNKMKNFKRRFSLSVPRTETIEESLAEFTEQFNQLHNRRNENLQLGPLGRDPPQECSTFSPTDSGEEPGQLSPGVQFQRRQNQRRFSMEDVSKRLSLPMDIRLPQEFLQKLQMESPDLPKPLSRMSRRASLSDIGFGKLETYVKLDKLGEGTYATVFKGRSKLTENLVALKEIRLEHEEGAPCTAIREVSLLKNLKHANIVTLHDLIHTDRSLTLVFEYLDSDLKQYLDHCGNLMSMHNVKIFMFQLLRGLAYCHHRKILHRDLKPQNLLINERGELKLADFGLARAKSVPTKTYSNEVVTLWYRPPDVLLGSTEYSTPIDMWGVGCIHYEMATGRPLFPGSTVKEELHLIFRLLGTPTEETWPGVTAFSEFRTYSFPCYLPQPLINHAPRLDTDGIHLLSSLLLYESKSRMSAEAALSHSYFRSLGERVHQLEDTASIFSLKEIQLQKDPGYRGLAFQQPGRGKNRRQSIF
Sequence of STK16 (human) (O75716 whole entry, looked up): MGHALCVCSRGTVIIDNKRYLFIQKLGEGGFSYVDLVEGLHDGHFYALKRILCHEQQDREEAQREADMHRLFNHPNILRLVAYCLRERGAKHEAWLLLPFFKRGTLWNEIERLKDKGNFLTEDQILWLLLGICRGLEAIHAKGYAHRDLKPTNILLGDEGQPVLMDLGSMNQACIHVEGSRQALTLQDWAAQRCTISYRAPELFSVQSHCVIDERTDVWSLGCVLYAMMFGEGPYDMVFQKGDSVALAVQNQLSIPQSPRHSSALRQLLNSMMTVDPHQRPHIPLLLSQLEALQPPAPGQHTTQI
Sequence of EGFR (human), P00533 [L861Q] (P00533 whole entry L861Q, looked up): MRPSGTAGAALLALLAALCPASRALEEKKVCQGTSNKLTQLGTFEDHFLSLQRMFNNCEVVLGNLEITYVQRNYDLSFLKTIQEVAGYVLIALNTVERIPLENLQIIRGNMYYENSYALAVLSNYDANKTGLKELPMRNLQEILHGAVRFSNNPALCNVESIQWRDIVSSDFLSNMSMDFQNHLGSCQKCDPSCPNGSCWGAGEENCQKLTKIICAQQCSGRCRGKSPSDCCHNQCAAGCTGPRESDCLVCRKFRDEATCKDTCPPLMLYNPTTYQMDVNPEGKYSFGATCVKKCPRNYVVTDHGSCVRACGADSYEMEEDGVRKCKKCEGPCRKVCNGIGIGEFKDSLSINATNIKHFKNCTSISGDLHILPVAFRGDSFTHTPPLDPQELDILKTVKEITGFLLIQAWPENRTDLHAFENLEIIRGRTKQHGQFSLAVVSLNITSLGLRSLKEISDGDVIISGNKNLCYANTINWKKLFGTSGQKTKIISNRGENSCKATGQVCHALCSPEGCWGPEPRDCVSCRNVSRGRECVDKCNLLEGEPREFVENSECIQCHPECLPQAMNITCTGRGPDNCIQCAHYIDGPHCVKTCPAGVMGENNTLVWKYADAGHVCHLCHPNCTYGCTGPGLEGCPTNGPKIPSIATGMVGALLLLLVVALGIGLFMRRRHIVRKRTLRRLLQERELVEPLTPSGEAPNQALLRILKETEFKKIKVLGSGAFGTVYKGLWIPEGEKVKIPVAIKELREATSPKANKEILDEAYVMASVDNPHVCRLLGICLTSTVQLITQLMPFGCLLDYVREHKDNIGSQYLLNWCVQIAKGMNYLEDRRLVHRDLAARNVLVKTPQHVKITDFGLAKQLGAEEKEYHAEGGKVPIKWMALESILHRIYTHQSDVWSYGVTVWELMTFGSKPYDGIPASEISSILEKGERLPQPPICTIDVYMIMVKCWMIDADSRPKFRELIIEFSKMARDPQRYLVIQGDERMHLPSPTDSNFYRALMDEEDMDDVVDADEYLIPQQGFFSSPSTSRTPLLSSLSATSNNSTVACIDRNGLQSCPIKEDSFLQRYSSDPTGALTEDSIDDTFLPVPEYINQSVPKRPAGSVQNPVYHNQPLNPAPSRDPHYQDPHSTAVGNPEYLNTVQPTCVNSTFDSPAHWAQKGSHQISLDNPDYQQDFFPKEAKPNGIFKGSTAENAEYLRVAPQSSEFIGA
Sequence of AKT1 (human) (P31749 whole entry, looked up): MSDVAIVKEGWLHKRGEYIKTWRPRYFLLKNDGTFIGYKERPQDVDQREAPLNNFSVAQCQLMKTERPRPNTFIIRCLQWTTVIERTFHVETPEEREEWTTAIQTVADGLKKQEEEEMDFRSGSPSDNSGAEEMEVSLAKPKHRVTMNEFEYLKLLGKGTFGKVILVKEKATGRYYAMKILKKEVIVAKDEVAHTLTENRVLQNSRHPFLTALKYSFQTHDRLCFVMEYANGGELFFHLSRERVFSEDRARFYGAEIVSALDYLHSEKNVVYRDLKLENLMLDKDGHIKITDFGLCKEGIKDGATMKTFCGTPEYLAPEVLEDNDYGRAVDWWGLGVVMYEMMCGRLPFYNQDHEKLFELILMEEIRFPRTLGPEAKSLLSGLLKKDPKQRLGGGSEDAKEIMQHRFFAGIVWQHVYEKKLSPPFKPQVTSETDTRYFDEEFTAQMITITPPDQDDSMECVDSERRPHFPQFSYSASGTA
Sequence of ERBB4 (human) (Q15303 whole entry, looked up): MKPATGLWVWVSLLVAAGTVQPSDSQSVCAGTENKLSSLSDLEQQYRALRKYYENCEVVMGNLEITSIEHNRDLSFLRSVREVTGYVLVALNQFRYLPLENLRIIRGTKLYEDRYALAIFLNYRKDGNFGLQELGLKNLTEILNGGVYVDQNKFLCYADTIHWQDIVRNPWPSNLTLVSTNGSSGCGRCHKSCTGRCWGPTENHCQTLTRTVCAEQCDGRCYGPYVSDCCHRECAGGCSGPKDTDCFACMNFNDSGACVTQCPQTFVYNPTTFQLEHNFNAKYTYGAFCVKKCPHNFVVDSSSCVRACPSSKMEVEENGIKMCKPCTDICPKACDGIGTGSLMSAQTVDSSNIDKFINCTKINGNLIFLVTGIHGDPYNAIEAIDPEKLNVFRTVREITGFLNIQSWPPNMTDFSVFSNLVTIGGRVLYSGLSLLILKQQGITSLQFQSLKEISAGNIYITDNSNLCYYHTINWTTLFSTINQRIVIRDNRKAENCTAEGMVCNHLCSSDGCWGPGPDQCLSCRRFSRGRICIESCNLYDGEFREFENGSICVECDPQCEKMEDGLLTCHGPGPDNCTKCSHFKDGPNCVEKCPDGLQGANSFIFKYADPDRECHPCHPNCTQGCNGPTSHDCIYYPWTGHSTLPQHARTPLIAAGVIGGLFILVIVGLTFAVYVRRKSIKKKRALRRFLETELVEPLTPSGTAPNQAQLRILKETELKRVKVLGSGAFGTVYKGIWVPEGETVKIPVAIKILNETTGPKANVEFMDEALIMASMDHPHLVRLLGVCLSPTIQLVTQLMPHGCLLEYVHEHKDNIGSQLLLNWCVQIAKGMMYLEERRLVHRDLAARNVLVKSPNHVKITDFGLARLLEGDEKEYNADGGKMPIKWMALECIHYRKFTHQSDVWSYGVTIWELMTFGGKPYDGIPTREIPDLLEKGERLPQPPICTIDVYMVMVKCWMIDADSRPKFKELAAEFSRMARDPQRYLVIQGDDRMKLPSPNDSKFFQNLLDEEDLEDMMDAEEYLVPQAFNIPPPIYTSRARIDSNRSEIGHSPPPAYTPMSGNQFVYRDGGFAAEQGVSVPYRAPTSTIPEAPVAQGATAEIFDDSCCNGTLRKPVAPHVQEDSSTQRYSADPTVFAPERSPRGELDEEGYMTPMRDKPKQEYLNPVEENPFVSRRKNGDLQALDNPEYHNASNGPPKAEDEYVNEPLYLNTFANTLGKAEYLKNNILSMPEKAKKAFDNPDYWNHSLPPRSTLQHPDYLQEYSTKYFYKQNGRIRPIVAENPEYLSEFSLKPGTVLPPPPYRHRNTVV
Sequence of STK32B (human) (Q9NY57 whole entry, looked up): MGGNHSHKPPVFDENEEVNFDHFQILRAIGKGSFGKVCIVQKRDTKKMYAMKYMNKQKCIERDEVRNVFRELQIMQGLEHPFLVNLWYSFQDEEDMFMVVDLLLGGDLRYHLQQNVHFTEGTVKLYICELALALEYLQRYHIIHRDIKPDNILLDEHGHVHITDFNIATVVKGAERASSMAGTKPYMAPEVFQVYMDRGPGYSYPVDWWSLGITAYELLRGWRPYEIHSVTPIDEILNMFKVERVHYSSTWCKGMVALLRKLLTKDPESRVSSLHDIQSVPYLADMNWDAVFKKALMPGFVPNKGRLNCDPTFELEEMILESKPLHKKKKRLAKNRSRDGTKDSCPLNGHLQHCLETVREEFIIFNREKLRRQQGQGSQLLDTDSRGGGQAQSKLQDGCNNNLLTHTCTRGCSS

- inhibition of binding (CLK4 (human)): 70%
- inhibition of binding (INSR (human)): 30%
- inhibition of binding (MELK (human)): 0%
- inhibition of binding (TNK1 (human)): 10%
- inhibition of binding (MAST1 (human)): 0%
- inhibition of binding (MAP4K5 (human)): 0%
- inhibition of binding [1]: 0%
- inhibition of binding (MAPK11 (human)): 0%
- inhibition of binding (AKT1 (human)): 0%
- inhibition of binding (PRKAA1 (human)): 3%
- inhibition of binding (AKT3 (human)): 0%
- inhibition of binding (RPS6KA1 KD2 (human)): 23%
- inhibition of binding [2]: 6%
- inhibition of binding (RPS6KA2 KD2 (human)): 16%
- inhibition of binding (PRKG1 (human)): 0%
- inhibition of binding [3]: 0%
- inhibition of binding (EIF2AK2 (human)): 19%
- inhibition of binding (HCK (human)): 0%
- inhibition of binding (EPHB2 (human)): 0%
- inhibition of binding (STK32B (human)): 11%
- inhibition of binding (NEK6 (human)): 0%
- inhibition of binding (CDK2 (human)): 30%
- inhibition of binding (CDK18 (human)): 34%
- inhibition of binding (ERBB4 (human)): 7%
- inhibition of binding [4]: 0%
- inhibition of binding (TLK1 (human)): 12%
- inhibition of binding (MAP3K5 (human)): 1%
- inhibition of binding (RAF1 (human)): 7%
- inhibition of binding (MAP3K11 (human)): 0%
- inhibition of binding (RPS6KA2 KD1 (human)): 2%
- inhibition of binding (DDR1 (human)): 7%
- inhibition of binding (HIPK3 (human)): 0%
- inhibition of binding (STK24 (human)): 5%
- inhibition of binding (PIP5K1A (human)): 0%
- inhibition of binding (WEE1 (human)): 2%
- inhibition of binding (BMPR1A (human)): 0%
- inhibition of binding (MAP3K4 (human)): 1%
- inhibition of binding [5]: 0%
- inhibition of binding (STK16 (human)): 0%
- inhibition of binding (LTK (human)): 0%
SMILES: Nc1cc(C(F)(F)F)c(-c2cc(N3CCOCC3)nc(N3CCOCC3)n2)cn1
